From ChEMBL document CHEMBL1201862, “PubChem BioAssay data set” (2004)
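Assay format: 96-well plates, 48-hour exposure. At the GI50, growth is halved.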 Active and inactive are the calls of the source. Cut-off read from the data, not from the text of the source: active = GI50 up to about 1.1 µM and inactive = higher.

Experiments:
Assay in all cases: DTP human tumour cell line panel, 48 h
CCRF-CEM = test system: CCRF-CEM
COLO 205 = test system: COLO 205
DU-145 = test system: DU-145
HCC 2998 = test system: HCC 2998
HOP-92 = test system: HOP-92
HT-29 = test system: HT-29
Hs-578T = test system: Hs-578T
LOX IMVI = test system: LOX IMVI
MCF7 = test system: MCF7
MDA-N = test system: MDA-N
Malme-3M = test system: Malme-3M
NCI-H23 = test system: NCI-H23
OVCAR-4 = test system: OVCAR-4
SF-268 = test system: SF-268
SF-295 = test system: SF-295
SK-MEL-28 = test system: SK-MEL-28
SNB-19 = test system: SNB-19
SNB-75 = test system: SNB-75
T47D = test system: T47D
UACC-257 = test system: UACC-257

SMILES | GI50 (CCRF-CEM) | GI50 (COLO 205) | GI50 (DU-145) | GI50 (HCC 2998) | GI50 (HOP-92) | GI50 (HT-29) | GI50 (Hs-578T) | GI50 (LOX IMVI) | GI50 (MCF7) | GI50 (MDA-N) | GI50 (Malme-3M) | GI50 (NCI-H23) | GI50 (OVCAR-4) | GI50 (SF-268) | GI50 (SF-295) | GI50 (SK-MEL-28) | GI50 (SNB-19) | GI50 (SNB-75) | GI50 (T47D) | GI50 (UACC-257)
CN1CC=C(OP(=O)(NCc2ccccc2)N(CCCl)CCCl)CC1 (centres undefined) | > 100 µM (inactive) | > 100 µM (inactive) | > 100 µM (inactive) | > 100 µM (inactive) | > 100 µM (inactive) | 61.8 µM (inactive) | > 100 µM (inactive) | > 100 µM (inactive) | > 100 µM (inactive) | > 100 µM (inactive) | > 100 µM (inactive) | > 100 µM (inactive) | > 100 µM (inactive) | > 100 µM (inactive) | > 100 µM (inactive) | 95.3 µM (inactive) | > 100 µM (inactive) | 89.3 µM (inactive) | > 100 µM (inactive) | 70.5 µM (inactive)
CC(C)=C[C@@H]1O[C@H](O)[C@@H]([C@H]2CC[C@@]3(C)[C@@H]4CC[C@H]5C(C)(C)C(=O)CC[C@@]56C[C@@]46CC[C@]23C)[C@@H]1O | 9.93 µM (inactive) | 20.1 µM (inactive) | 16.1 µM (inactive) | 18.6 µM (inactive) | 16.6 µM (inactive) | 11.8 µM (inactive) | 21.2 µM (inactive) |  | 4.14 µM (inactive) | 15.9 µM (inactive) | 16.8 µM (inactive) | 16.4 µM (inactive) | 18.1 µM (inactive) | 17.6 µM (inactive) | 16.1 µM (inactive) | 22.8 µM (inactive) | 20.9 µM (inactive) | 17.7 µM (inactive) | 14.6 µM (inactive) | 16.7 µM (inactive)
O=C(O)c1ccc(C=C2Sc3ccccc3S2)cc1 | 55.5 µM (inactive) | 92.7 µM (inactive) | > 100 µM (inactive) | 8.07 µM (inactive) | 64.4 µM (inactive) | 43.5 µM (inactive) | 24 µM (inactive) | 52 µM (inactive) | 35 µM (inactive) | 29 µM (inactive) | 84.7 µM (inactive) | > 100 µM (inactive) | 55.3 µM (inactive) | 52.6 µM (inactive) | 33.5 µM (inactive) |  | 73.8 µM (inactive) |  | 45 µM (inactive) | 54.5 µM (inactive)
CCOC1OC(C)(C=C(C#N)C#N)CCC1C (centres undefined) | 30.3 µM (inactive) | 36.8 µM (inactive) | 39.2 µM (inactive) | 32.1 µM (inactive) | 48.5 µM (inactive) | 27.6 µM (inactive) | 36 µM (inactive) | 22.8 µM (inactive) | 35.2 µM (inactive) | 47.2 µM (inactive) | 43.3 µM (inactive) | 29.7 µM (inactive) | 49.3 µM (inactive) | 43.2 µM (inactive) | > 67.5 µM (inactive) | 47.2 µM (inactive) | > 57.3 µM (inactive) | 14.6 µM (inactive) | 44.2 µM (inactive) | > 71.6 µM (inactive)
Nc1cc2c3c(cccc3c1)NC2=O | 8.05 µM (inactive) | > 100 µM (inactive) | > 100 µM (inactive) | > 100 µM (inactive) | > 100 µM (inactive) | > 100 µM (inactive) | > 100 µM (inactive) | 51.4 µM (inactive) | 27.9 µM (inactive) | 68.7 µM (inactive) | > 100 µM (inactive) | 79.8 µM (inactive) | > 100 µM (inactive) | 11.2 µM (inactive) | > 100 µM (inactive) | > 100 µM (inactive) | 84.9 µM (inactive) | 14.6 µM (inactive) | 28 µM (inactive) | > 100 µM (inactive)
Cc1ccccc1/N=N/c1ccc(N/N=C2/CCCNC2=O)c(C)c1 | 9.46 µM (inactive) | > 100 µM (inactive) | > 100 µM (inactive) | > 100 µM (inactive) | > 100 µM (inactive) | > 100 µM (inactive) | > 100 µM (inactive) | > 100 µM (inactive) | 64.1 µM (inactive) | > 100 µM (inactive) | > 100 µM (inactive) | > 100 µM (inactive) | 66.8 µM (inactive) | > 100 µM (inactive) | > 100 µM (inactive) | > 100 µM (inactive) | > 100 µM (inactive) |  | 33 µM (inactive) | > 100 µM (inactive)
COc1cc(O)c(C(=O)/C=C/c2ccccc2)c(OC)c1 [FLAVOKAWAIN B] | 2.27 µM (inactive) | 14.5 µM (inactive) | 7.73 µM (inactive) | 2.97 µM (inactive) | 3.72 µM (inactive) | 7.66 µM (inactive) | 3.2 µM (inactive) | 2.29 µM (inactive) | 7.8 µM (inactive) | 3.78 µM (inactive) | 4.61 µM (inactive) | 5.97 µM (inactive) | 8 µM (inactive) | 4.98 µM (inactive) | 13 µM (inactive) | 3.34 µM (inactive) | 3.47 µM (inactive) |  | 6.82 µM (inactive) | 10.8 µM (inactive)
CNc1ccc([S+]([O-])Nc2ccc(OC)cc2)cc1 (centres undefined) | 46.5 µM (inactive) | 29.2 µM (inactive) | 39.5 µM (inactive) | 50.2 µM (inactive) | > 100 µM (inactive) | 33.7 µM (inactive) | > 100 µM (inactive) | 7.38 µM (inactive) | 79.6 µM (inactive) | > 100 µM (inactive) | 41.7 µM (inactive) | > 100 µM (inactive) | > 100 µM (inactive) | > 100 µM (inactive) | > 100 µM (inactive) | 93.3 µM (inactive) | > 100 µM (inactive) |  | 31.8 µM (inactive) | > 100 µM (inactive)
COc1ccc(NCc2cnc3nc(N)nc(N)c3c2C)cc1 | 0.57 µM (active) | 9.35 µM (inactive) | 0.718 µM (active) | 12.7 µM (inactive) | 5.93 µM (inactive) | 0.406 µM (active) | 59.8 µM (inactive) | 0.316 µM (active) | 2.13 µM (inactive) | 0.174 µM (active) |  | 0.628 µM (active) | > 53.5 µM (inactive) | 0.618 µM (active) | 0.41 µM (active) | 8.51 µM (inactive) | 21 µM (inactive) | 52 µM (inactive) | 15 µM (inactive) | 2.58 µM (inactive)
CC(=O)c1ccc(/N=N/N2CCCC2)cc1 | > 100 µM (inactive) | > 100 µM (inactive) | > 100 µM (inactive) | > 100 µM (inactive) | > 100 µM (inactive) |  | > 100 µM (inactive) | > 100 µM (inactive) | > 100 µM (inactive) | > 100 µM (inactive) |  | > 100 µM (inactive) | > 100 µM (inactive) | > 100 µM (inactive) | > 100 µM (inactive) |  | > 100 µM (inactive) | > 100 µM (inactive) | > 100 µM (inactive) | > 100 µM (inactive)
COC(=O)[C@H](Cc1ccccc1)NC(=O)N(CCN(CCC#N)C(=O)N[C@H](C(=O)OC)C(C)C)c1ccccc1 | 33.7 µM (inactive) | > 100 µM (inactive) | > 100 µM (inactive) | > 100 µM (inactive) | 22.8 µM (inactive) |  | > 100 µM (inactive) | > 100 µM (inactive) | > 100 µM (inactive) | > 100 µM (inactive) | 43.7 µM (inactive) | > 100 µM (inactive) | 53.3 µM (inactive) | > 100 µM (inactive) | > 100 µM (inactive) | > 100 µM (inactive) | > 100 µM (inactive) | > 100 µM (inactive) | 49.4 µM (inactive) | 32.1 µM (inactive)
